According to a melting point compilation (Tetko et al.):

With `Cc1ncc([N+](=O)[O-])n1CCCN1C(=O)c2ccccc2C1=O` the melting point was 168 to 169 °C.

`O=C(O)c1cccc(-n2cccc2)c1` gave a melting point of 180 to 181 °C.

Compound `CC(C)c1nc2ccccc2[nH]1` has a melting point of 235 °C.

For `CC1(C)C(=O)N(Cl)C(=O)N1Br`, the melting point was 164 °C.

For `CCNc1c(C=O)c(=O)oc2ccccc12`, the melting point was 181 °C.

Compound `CCOC(O)C(Cl)(Cl)Cl` (configuration not stated) has a melting point of 56.5 °C.

`NC(=O)C1C2C=CC(C2)C1N` (configuration not stated) showed a melting point of 235 to 253 °C.

`N#CC12CC3CC(CC(C3)C1)C2` showed a melting point of 195 °C.

In the case of `CC(=O)c1cc(Cl)sc1Cl`, the melting point is reported as 38 °C.

With `O=C(C=Cc1ccc(O)c(O)c1)OC1CC(O)(C(=O)O)CC(O)C1O` (configuration not stated) the melting point was 205 to 209 °C.

With `NC(=S)c1ccccc1N` the melting point was 120 to 122 °C.

`Fc1c(F)c(F)c(Br)c(Br)c1F` showed a melting point of 12 °C.

Work on `COC(=O)c1cc(C(=O)OC)c(C(=O)OC)cc1C(=O)OC` yielded a melting point of 144 °C.

`Nc1ccc(Br)nc1` gave a melting point of 77 °C.

Compound `Clc1ccccc1-c1ccccc1` has a melting point of 34 °C.

In the case of `Cn1ccc(-c2ccc(C(=O)O)cc2)n1`, the melting point is reported as 240 to 242 °C.

`CSc1cc2c(c3c1CCOc1ccccc1-3)c(=O)n(-c1ccccc1)n2C` showed a melting point of 176 °C.

Work on `CC(=O)c1cc(C)c(C)cc1O` yielded a melting point of 69 to 73 °C.

In the case of `CC(N)CC(=O)O` (configuration not stated), the melting point is reported as 193 °C.

With `CC(C)(C)OC(=O)N1CCC(Oc2ccc(C(=O)O)cc2)CC1` the melting point was 175 to 177 °C.

For `O=C1NCCO1`, the melting point was 87 °C.

Work on `O=c1oc(=O)c2cc3c(=O)oc(=O)c3cc12` yielded a melting point of 283 to 287 °C.

Compound `O=C(C=Cc1cccc([N+](=O)[O-])c1)c1ccc(F)cc1` has a melting point of 166 to 167 °C.

Work on `Cc1cc2c(ccc3nonc32)nn1` yielded a melting point of 167 to 169 °C.

With `O=S1(=O)CC(O)C(Cl)C1` (configuration not stated) the melting point was 163 to 165 °C.

`Cc1cc(=O)oc(C)c1C(=O)Oc1cccc(Cl)c1` showed a melting point of 96 °C.

For `NNC(=O)c1ccc(I)cc1`, the melting point was 173 to 175 °C.

Compound `C=CCOC(=O)CC(C)=O` has a melting point of -85 °C.

Compound `O=Cc1cccn1-c1cc(Cl)cc(Cl)c1` has a melting point of 150 to 152 °C.

In the case of `Cc1cc(O)c(C)c(C)c1O`, the melting point is reported as 173 °C.

Compound `CC(=O)OCC(OC(C)=O)C(OC(C)=O)C(OC(C)=O)C(OC(C)=O)C(N)=O` (configuration not stated) has a melting point of 187 to 188 °C.

`COC(=O)c1ccc(C(=O)OC)c(C(=O)OC)c1` showed a melting point of 39 °C.

Work on `O=C(CCl)Nc1cccc(C(F)(F)F)c1` yielded a melting point of 62.5 to 64 °C.

For `CCOC(=O)c1c(N)sc(C)c1C`, the melting point was 90 to 91 °C.

For `Cc1nnc(SCc2ccccc2)n1N=Cc1ccccc1Cl`, the melting point was 121 to 123 °C.

Work on `CCOC(=O)C#Cc1cccc(C#CC(=O)OCC)c1` yielded a melting point of 56 °C.

`COc1ccc(C#N)c(Cl)c1OC` gave a melting point of 102 °C.

Compound `COC(=O)c1cccc2cc[nH]c12` has a melting point of 46 to 47 °C.

Work on `Oc1cccc(F)c1F` yielded a melting point of 36 °C.

For `Cc1nc2ccc(S(=O)(=O)Cl)cc2s1`, the melting point was 98 to 101 °C.

For `Cc1cc(Cl)ncc1N`, the melting point was 69 to 73 °C.

Work on `Nc1ccccc1CO` yielded a melting point of 83.5 °C.

Work on `CCOC(=O)C(C)(/C=C1\C(=O)C2(C)CCC1C2(C)C)/C=C1\C(=O)C2(C)CCC1C2(C)C` (configuration not stated) yielded a melting point of 118 °C.

For `CC(=O)/C(=N\Nc1ccc(Cl)cc1)C(=O)C(F)(F)F`, the melting point was 124 °C.

With `FC(F)(F)c1cccc(C(F)(F)F)n1` the melting point was 57 °C.

Compound `COC(=O)C1C(=O)C(C(=O)OC)C2c3ccccc3C1C(C(=O)OC)C(O)C2C(=O)OC` (configuration not stated) has a melting point of 92.2 °C.

Compound `Cc1nc2sccn2c1C(=O)O` has a melting point of 164 to 165 °C.

Work on `FC(F)(F)C(Cl)(Cl)C(Cl)(Cl)C(F)(F)F` yielded a melting point of 83.5 °C.

`Cc1onc(-c2ccccc2Cl)c1C(=O)Cl` gave a melting point of 42 °C.

For `NCCCC1C=NNC1=O` (configuration not stated), the melting point was 216 °C.

With `O=C(O)CNCC(=O)O` the melting point was 248 °C.

Work on `COC(=O)c1ccc(/C=C/c2ccc(C(=O)OC)cc2)cc1` yielded a melting point of 235 °C.

Compound `C[C@H](O)CC[C@H](C)O` has a melting point of 53 °C.

Work on `Oc1ccc2c(c1)C13CCCCC1C(C2)N(CCc1ccccc1)CC3` (configuration not stated) yielded a melting point of 244 °C.

`CC(=O)N(C(C)=O)c1cc(C=CC(=O)O)ccc1C=CC(=O)O` showed a melting point of 310 to 315 °C.

`CC(C)(Oc1ccc(Cl)cc1)C(N)=O` gave a melting point of 126 to 129 °C.

With `O=C(O)c1ccc(C2CCCCC2)cc1` the melting point was 196 °C.

`Cc1nccc2c1[nH]c1ccccc12` gave a melting point of 236 °C.

Work on `CCN(C(C)=O)c1ccccc1` yielded a melting point of 55 °C.

`CN(C)C(=O)SCCCCOc1ccccc1` gave a melting point of 40.5 °C.

`FC(F)(F)C(F)(F)C(F)(F)C(F)(F)C(F)(F)C(F)(F)C(F)(F)C(F)(F)C(F)(F)C(F)(F)C(F)(F)C(F)(F)F` gave a melting point of 75 to 77 °C.

In the case of `Cc1c(N/N=C(/C(=O)c2ccc([N+](=O)[O-])cc2)S(=O)(=O)c2ccccc2)c(=O)n(-c2ccccc2)n1C`, the melting point is reported as 135 °C.

For `NNC(=O)c1ccccc1Oc1ccccc1`, the melting point was 99 to 103 °C.

In the case of `OC(CCCN1CCCCC1)(c1ccccc1)c1ccccc1`, the melting point is reported as 104 °C.

Work on `COc1ccc(C(=O)CC(=O)c2ccc(C(C)(C)C)cc2)cc1` yielded a melting point of 83.5 °C.

Compound `CC(=O)Oc1ccccc1C(=O)OC(=O)c1ccccc1OC(C)=O` has a melting point of 83 °C.

For `OCc1cccc2c1OCCCO2`, the melting point was 47 to 48 °C.

`C=C1CC23CC1(O)CCC2C12C=CC(O)C(C)(C(=O)O1)C2C3C(=O)O` (configuration not stated) showed a melting point of 227 °C.

Work on `CC(/C=N/NC(N)=O)=N\NC(N)=O` yielded a melting point of 255 °C.

Work on `O=C1C=CC=C2CC1=CC=CC2=O` yielded a melting point of 147 °C.

`CSc1c(C#N)c(N)nc2c(/N=N/c3ccc(F)cc3)c(N)nn12` showed a melting point of 228 °C.

For `N#Cc1ccc(C(c2ccc(C#N)cc2)n2cncn2)cc1`, the melting point was 181 °C.

Compound `CC(=O)Cc1ccccc1C(=O)OCC(=O)N(C)CCO` has a melting point of 70.5 °C.

Compound `c1cc(N2CCCC2)ccn1` has a melting point of 56 °C.

With `NCc1ccccc1-n1cccc1` the melting point was 156 to 157 °C.

`Cc1cc(CO)c(-c2ccccc2)o1` gave a melting point of 56 to 59 °C.

In the case of `COc1ccccc1/C=C(\C#N)c1nc2ccccc2s1`, the melting point is reported as 158 °C.

`CC1OC(=O)C(C)OC1=O` (racemic) gave a melting point of 124 °C.

In the case of `Cc1ccc(O)c(Cl)c1C`, the melting point is reported as 27 °C.

With `CC(=O)c1ccc(-n2ccnc2)cc1` the melting point was 116 °C.

Work on `O=C1c2ccccc2C(=O)C1c1ccc(Cl)cc1` yielded a melting point of 146 °C.

In the case of `N#CCc1ccccc1OCc1ccccc1`, the melting point is reported as 77 °C.

In the case of `O=C1OC(=O)C2CCC12` (configuration not stated), the melting point is reported as 73 to 76 °C.

With `OCc1cc(F)cc2c1OCOC2` the melting point was 73.2 to 73.9 °C.

`Cc1c(NC(=O)C(C)N(C)C)c(=O)n(-c2ccccc2)n1C` (configuration not stated) gave a melting point of 181 °C.

Compound `CC(C)(c1cc(Br)c(OCCO)c(Br)c1)c1cc(Br)c(OCCO)c(Br)c1` has a melting point of 108 to 114 °C.

Work on `O=C(C(C(=O)N1CCOCC1)c1ccccc1)N1CCOCC1` yielded a melting point of 187 °C.

Work on `CC(=O)OCC(=O)c1ccccc1` yielded a melting point of 49 °C.

In the case of `O=C1CCC(F)(F)CC1`, the melting point is reported as 39 °C.

With `COC(=O)c1ccc2c(I)cn(C(=O)OC(C)(C)C)c2c1` the melting point was 154 to 155 °C.

Work on `OC1(c2ccc(Cl)cc2)CCNCC1` yielded a melting point of 139 to 141 °C.

`C=CC(=O)NC(O)C(O)NC(=O)C=C` (configuration not stated) showed a melting point of 142 °C.

`O=C(Cl)c1cc(C(=O)Cl)c([N+](=O)[O-])cc1[N+](=O)[O-]` gave a melting point of 107 °C.

`O=C(O)c1cccc2c1C(=O)c1ccccc1-2` gave a melting point of 194 to 198 °C.

Compound `Oc1ccc(F)cc1Cl` has a melting point of 23 °C.

With `COc1ccc(OCC(=O)O)cc1` the melting point was 112 to 114 °C.

`Cn1c(=O)c2[nH]c(Cl)nc2n(C)c1=O` gave a melting point of 290 °C.

Compound `O=C(Nc1c(Cl)cccc1Cl)C(C(F)(F)F)C(F)(F)F` has a melting point of 196 °C.

Compound `COc1ccc(C)c(C(=O)O)c1` has a melting point of 147 °C.

Compound `FC1CCCCC1` has a melting point of 13 °C.

In the case of `CCCNC(=O)NNC(=O)OCC`, the melting point is reported as 95 °C.

For `CCOC(=O)C(Br)C(C)Br` (configuration not stated), the melting point was 58.5 °C.

`Clc1ccc(OCOc2ccc(Cl)cc2)cc1` gave a melting point of 70.5 °C.

`NC(=O)Cc1cccs1` showed a melting point of 147 °C.

With `O=C(O)CN(CCO)CC(=O)O` the melting point was 178 °C.

Work on `COC(=O)c1cc(C)[nH]n1` yielded a melting point of 82 °C.

In the case of `CC1CC(=O)Nc2ccccc2N1` (configuration not stated), the melting point is reported as 180 to 183 °C.

Compound `CC(C)c1ccccc1C(C)C` has a melting point of -57 °C.

`O=C(O)c1csc(-c2cccc(Cl)c2Cl)n1` showed a melting point of 233 to 234 °C.

Work on `NS(=O)(=O)c1ccc(SCCCO)cc1` yielded a melting point of 117 °C.

Work on `NCCc1c[nH]c2ccc(O)cc12` yielded a melting point of 168 °C.

`c1ccc(Cc2ccccc2)cc1` gave a melting point of 25.2 °C.

In the case of `CC1C(=CC(=O)OCCN(C)C)CCC2C1C(=O)CC1C(C)(C)C(O)CCC21C` (configuration not stated), the melting point is reported as 142 °C.

Compound `CCc1nc(N)nc(O)c1C` has a melting point of 303 to 304 °C.

Work on `CCCCCCCCC=CCCCCCCCC(=O)OCC(O)CO` (configuration not stated) yielded a melting point of 35 °C.

`CN(C)c1cccc2cccc(N(C)C)c12` showed a melting point of 49 °C.

`CC(C)(C)c1ccc(-c2nnc(S)n2-c2cccc(C(F)(F)F)c2)cc1` showed a melting point of 256 to 260 °C.

Compound `C[C@@]12CCC[C@@]1(O)[C@@H]1CC=C3CC(O)CC[C@]3(C)[C@H]1CC2` (some centres not stated) has a melting point of 201 to 203 °C.

For `C=C1C(=O)C23C4CC5C(C)(C)CCC(OC(C)=O)C5(C(=O)O4)C2C(OC(C)=O)CC1C3OC(C)=O` (configuration not stated), the melting point was 230 °C.

For `OC12CC=CCC1(O)CC=CC2` (configuration not stated), the melting point was 83 °C.

With `Cc1noc(C)c1C=O` the melting point was 35 to 38 °C.

In the case of `O=C(O)c1nnn(Cc2ccccc2)c1C(=O)O`, the melting point is reported as 180 °C.

For `O=C(OCC(COC(=O)c1ccccc1)OC(=O)c1ccccc1)c1ccccc1`, the melting point was 76 °C.

Compound `Cc1ccc(C(O)c2ccccc2O)cc1` (configuration not stated) has a melting point of 105 °C.

Work on `Cc1cc(O)c(Cl)c(C)c1Cl` yielded a melting point of 95.5 °C.

Compound `COC(=O)CCC(C)C1CCC2C3C(OC(C)=O)CC4CC(=O)CCC4(C)C3CC(=O)C12C` (configuration not stated) has a melting point of 165 to 167 °C.

Work on `COc1ccc(-c2nn3c(C)nnc3s2)cc1` yielded a melting point of 177 °C.

With `COc1ccc(C(=O)NNC(=O)c2cccc3ccccc23)cc1` the melting point was 189 °C.

For `FC(F)(F)C(Cl)(Cl)Cl`, the melting point was 14.2 °C.

Work on `Cc1nc(S(=O)(=O)Cl)cn1C` yielded a melting point of 91 to 94 °C.

In the case of `COCc1cc(=O)oc2cc(N)ccc12`, the melting point is reported as 184 °C.

In the case of `Clc1ccc2nc(N3CCCNCC3)sc2c1`, the melting point is reported as 103 to 105 °C.
